US20110110965A1, “COMPOSITIONS THAT INDUCE T CELL HELP” (Selecta Biosciences, Inc., priority 2009, published 2011)
“Also recorded” adds a separate entry of the source. Like-named read-outs stand apart in the source and are kept apart here. Where no end group is shown, it is not given here. [ ]: non-standard residue; d: D form.

Legend:
[1] = tested on: CD4+/CD45RAlow/CD62Lhigh central memory T-cells; format: cell-based, human; conditions: for memory T-cell recall response, influenza epitopes: 5 PBMC donors, FIG. 12; for memory T-cell recall response, influenza epitopes / potency of recall response (activated central memory T-cells, CD4+/CD45RAmedium/CD62Lhigh/IFN-γ+) / memory T-cell recall response of individual peptides and heterodimeric peptides lacking a cathepsin cleavage site compared with this peptide: 4 μM peptide; for potency of recall response (activated central memory T-cells, CD4+/CD45RAmedium/CD62Lhigh/IFN-γ+): human PBMC, 20 donors, FIG. 2; for memory T-cell recall response of individual peptides and heterodimeric peptides lacking a cathepsin cleavage site compared with this peptide: 4 donors, the comparators gave the weaker response, the labelled kvsvr peptides the stronger
[2] = tested on: CD4+/CD45RAlow/CD62Lhigh central memory T-cells; test: Dendritic cell/CD4 T-cell co-culture, multi-color intracellular cytokine analysis; format: cell-based, human; conditions: for co-expression of TNF-α and IFN-γ / co-expression of TNF-α and IL-4: multiple color flow cytometry, FIG. 6; for expression of IL-4 in peptide activated memory T-cells / expression of TNF-α and IFN-γ in peptide activated memory T-cells: DC/CD4 T-cell co-culture with peptide, FIGS. 4, 5
Procedure: Early central memory-cells express multiple cytokines (IL-2, TNF-α, IFN-γ) when re-activated with specific peptides, whereas committed effector memory T-cells are thought to selectively express IL-4 for TH2 committed effector memory, and IFN-γ for TH1 committed effector memory. The status of peptide activated memory T-cells was tested using multi-color intracellular cytokine analysis of dendritic cell/CD4 cell co-cultures.
Human peripheral blood monocytes were isolated using negative-selection magnetic beads (Dynal) and cultured in the presence of GM-CSF and IL-4 for 1 week in order to induce differentiation into dendritic cells. Allogeneic CD4 T cells were isolated using magnetic bead separation (Dynal) and co-cultured in the presence of DCs in the presence or absence of peptide. The protocol for stimulation and analysis from that point is identical to that for PBMC described above in Example 2.

In the case of “ILSIYSTVASSLALAIkvsvrLIFLARSALILR [ABW2kAAT]”, the “memory T-cell recall response, influenza epitopes” value [1] is reported as “positive”.

ILMQYIKANSKFIGIQSIALSSLMVAQ [TT830DTt] was tested, and the “co-expression of TNF-α and IFN-γ” value [2] was “peptide induced co-expression” and the “co-expression of TNF-α and IL-4” value [2] was “not co-expression”.

In the case of “CSQRSKFLLMDALKLkvsvrLIFLARSALILR [AAWkAAT]”, the “memory T-cell recall response, influenza epitopes” value [1] is reported as “positive”.

For “TLLYVLFEVPMGLPILMQYIKANSKFIGI [AdVpTT830]”, the “potency of recall response (activated central memory T-cells, CD4+/CD45RAmedium/CD62Lhigh/IFN-γ+)” value [1] was “eliminated activity of the AdV epitope”.

“TLLYVLFEVkvsvrQSIALSSLMVAQ (TLLYVLFEV[dK][dV][dS][dV][dR]QSIALSSLMVAQ) [AdVkDTt]” was tested, and the “memory T-cell recall response of individual peptides and heterodimeric peptides lacking a cathepsin cleavage site compared with this peptide” value [1] was “weaker response as compared to the donor response to heterotrimeric peptides”.

With “NAELLVALENQHTIkvsvrLIFLARSALILR (NAELLVALENQHTIKVSVRLIFLARSALILR) [3120tkAAT]” the “memory T-cell recall response, influenza epitopes” value [1] was “positive”.

In the case of “LIFLARSALILRkvsvrILSIYSTVASSLALAI [AATkABW2]”, the “memory T-cell recall response, influenza epitopes” value [1] is reported as “positive”.

In the case of “ILMQYIKANSKFIGIPMGLPQSIALSSLMVAQ [TT830pDTt]”, the “expression of IL-4 in peptide activated memory T-cells” value [2] is reported as “not IL-4”, the “expression of TNF-α and IFN-γ in peptide activated memory T-cells” value [2] is reported as “increased expression” and the “co-expression of TNF-α and IFN-γ” value [2] is reported as “peptide induced co-expression”. For the same substance, the “co-expression of TNF-α and IL-4” value [2] was “not co-expression”, the “potency of recall response (activated central memory T-cells, CD4+/CD45RAmedium/CD62Lhigh/IFN-γ+)” value ([1]; listed as TT830 pmglpDTt) was “highest response; also recorded: more active than its individual components (TT830 and DT) alone” and the “number (out of 20) donors positive for memory T-cells responding to peptide” value ([1]; positive if greater than 0.08% responding central memory T-cells in the CD4+CD45RAlow population, FIG. 3) was 20/20.

For “TLLYVLFEVkvsvr NNFTVSFWLRVPKVSASHLET (TLLYVLFEV[dK][dV][dS][dV][dR]NNFTVSFWLRVPKVSASHLET) [AdVkTT950]”, the “memory T-cell recall response of individual peptides and heterodimeric peptides lacking a cathepsin cleavage site compared with this peptide” value [1] was “weaker response as compared to the donor response to heterotrimeric peptides”.

For “ILMQYIKANSKFIGIQSIALSSLMVAQAIPLVGEL [TT830DT]”, the “expression of IL-4 in peptide activated memory T-cells” value [2] was “not IL-4” and the “expression of TNF-α and IFN-γ in peptide activated memory T-cells” value [2] was “increased expression”.

“ILMQYIKANSKFIGI QSIALSSLMVAQTLLYVLFEV (ILMQYIKANSKFIGIQSIALSSLMVAQTLLYVLFEV) [TT830DTAdV]” was tested, and the “memory T-cell recall response” value [1] was “recall response in all 4 donors”.
